Source: patent US6265611A, “Hydroxymandelic acid amides of phenolic amines” (Haarmann & Reimer GmbH, priority 1999, dated 2001)

Experiments:
[1] = DPPH test, activity as free-radical scavenger; assay type: biochemical; conditions: EC = c(test compound)/c(DPPH); DPPH 100 μmol/l in methanol; absorption at 515 nm
Method: The activity of the compounds according to Examples 1 to 7 as free-radical scavengers was compared with the conventional free-radical scavenger. For this purpose, the DPPH (1,1-diphenyl-2-picryl-hydrazyl) test for the removal of […] was used.
DPPH was dissolved in methanol to a concentration of 100 μmol/l. A series of dilutions of the illustrative compound, vitamin C, α tocopherol, butylated hydroxytoluene and ferulic acid in methanol were prepared. Methanol was used as the control. 2500 μl of the DPPH solution were mixed with 500 μl of each test solution and the decrease in absorption at 515 nm was read until the decrease was less than 2% per hour. The activity of the test substances as free-radical scavengers was calculated using the following equation:
Activity as free-radical scavenger (%)=100-(absorption of the test
compounds)/ (absorption of the control)×100.

[2] = Activity as antioxidants: accelerated autoxidation of lipids by air (Rancimat); conditions: AOI = IP(with test solution)/IP(control sample); 0.05% test substance; soybean oil, 100° C., air 20 l/h
Method: The activity of the illustrative compounds 1 to 7 as antioxidants was compared with that of traditional antioxidants. The test system used was the accelerated autoxidation of lipids by air with or without antioxidant using the Rancimat apparatus (Rancimat is a registered trade mark of Metrohm AG, Herisau, Switzerland). The illustrative compounds, vitamin C, α-tocopherol, ferulic acid and butylated hydroxytoluene were dissolved in methanol or acetone, and 100 μl of each test solution were added to a 3 g prepared oil sample (soybean oil, purified over alumina type N). In a control sample, only solvent was added. A constant, dry stream of air (20 l/h) was blown through the oil sample, which contained the test solution and was heated to 100° C., and the volatile oxidation product (predominantly short-chain fatty acids such as formic or acetic acid) were collected in a trap containing water. The conductivity of this aqueous solution was continuously measured and recorded. […] The time to the increase is referred to as the induction period (IP). The following equation was used to calculate the antioxidative index (AOI): AOI=IP(with test solution) /IP(control sample)

[3] = Solubility in aqueous media (water/DMSO 95:5); assay type: physicochemical
Method: The aqueous medium used by way, of example, was a mixture of 95 parts by weight of water and 5 parts by weight of DMSO. The compounds to be tested were weighed into a glass vessel, admixed with a defined amount of solvent and treated with ultrasound at room temperature for 5 min.

SMILES	EC50 (effective relative concentration at which 50% of the free radical DPPH had been removed) [1] [mol/mol]	Solubility in a mixture of water (95 parts by weight) and DMSO (5 parts by weight) [3]	antioxidative index (AOI) with 0.05% of test substance [2]
O=C(NCc1ccc(O)c(O)c1)C(O)c1ccc(O)c(O)c1 (centres unmarked) [Example 6, N-(3,4-dihydroxybenzyl)-2-(3,4-dihydroxyphenyl)-2-hydroxyacetamide]	0.069	0.1-0.5 % by weight	17.5
COc1cc(C(O)C(=O)NCc2ccc(O)c(O)c2)ccc1O (centres unmarked) [Example 3, N-(3,4-dihydroxybenzyl)-2-hydroxy-2-(4-hydroxy-3methoxyphenyl)acetamide]	0.195	> 10 % by weight	9.8
Cc1cc(C(C)(C)C)c(O)c(C(C)(C)C)c1 [Butylated hydroxytoluene, reference compound]	0.240		4.77
COc1cc(C(O)C(=O)NCc2cc(O)c(O)c(O)c2)ccc1O (centres unmarked) [Example 4, 2-Hydroxy-2-(4-hydroxy-3-methoxyphenyl)-N-(3,4,5-trihydroxybenzyl)acetamide]	0.198	0.5-1 % by weight	11.0
COc1cc(CNC(=O)C(O)c2ccc(O)c(O)c2)ccc1O (centres unmarked) [Example 5, 2-(3,4-Dihydroxyphenyl)-2-hydroxy-N-(4-hydroxy-3 methoxybenzyl)acetamide]	0.199	0.05-0.1 % by weight	12.6
COc1cc(C(O)C(=O)NCCc2ccc(O)c(O)c2)ccc1O (centres unmarked) [Example 1, N-(3,4-dihydroxyphenethyl)-2-hydroxy-2-(4-hydroxy-3 methoxyphenyl)acetamide]	0.131	5-10 % by weight	13.0
O=C(NCCc1ccc(O)c(O)c1)C(O)c1ccc(O)c(O)c1 (centres unmarked) [Example 2, N-(3,4-dihydroxyphenethyl)-2-(3,4-dihydroxyphenyl)-2-hydroxyacetamide]	0.104	> 10 % by weight	16.9

More lines, main results first:

EC50 (effective relative concentration at which 50% of the free radical DPPH had been removed) [1] [mol/mol]	Solubility in a mixture of water (95 parts by weight) and DMSO (5 parts by weight) [3]	SMILES	antioxidative index (AOI) with 0.05% of test substance [2]
0.270		O=C1O[C@H]([C@@H](O)CO)C(O)=C1O [Vitamin C, ascorbic acid, reference compound]	1.17
0.085	0.5-1 % by weight	O=C(NCc1cc(O)c(O)c(O)c1)C(O)c1ccc(O)c(O)c1 (centres unmarked) [Example 7, 2-(3,4-Dihydroxyphenyl)-2-hydroxy-N-(3,4,5-trihydroxybenzyl)acetamide]	16.4
0.250		Cc1c(C)c2c(c(C)c1O)CCC(C)(CCCC(C)CCCC(C)CCCC(C)C)O2 (stereo not drawn) [α-Tocopherol, reference compound]	5.05
0.350		COc1cc(/C=C/C(=O)O)ccc1O [Ferulic acid, reference compound]	1.79
